Test results reported in patent publication US9296754B2, “Compounds and compositions for the treatment of parasitic diseases” (Novartis AG, priority 2013, dated 2016).
pEC50: −log10 of the molar value.

How the values were obtained:
[1] = system: Trypanosoma brucei Lister 427 strain, bloodstream form; assay: Proliferation of Trypanosoma brucei (Cell Titer Glo); assay type: cell-based; conditions: 48 hours, read-out: T. brucei EC50
Source text: Assay for Proliferation of Kinetoplastid Parasite Trypanosoma brucei. The proliferation is quantified by the addition of Cell Titer Glo (Promega®) a luminescent cell viability assay that measures the number of viable cells in culture based on the quantification of cellular ATP amount, which is an indicator of metabolically active cells. The following assay illustrates the invention without in any way limiting the scope of the invention. This parasite proliferation assay measures the increase in parasite growth using an assay that measures ATP activity, Cell Titer Glo®. […] Then 25 μl of a suspension of T. brucei culture in HMI-9 media is dispensed into the assay plates. […] The plates are then read for luminescence.

[2] = system: Leishmania donovani axenic amastigote parasites; assay: Leishmania donovani axenic amastigote proliferation assay (Cell TiterGlo luminescence); assay type: cell-based; conditions: 48 h, axenic amastigotes, 2 day incubation, read-out: L. donovani amastigotes EC50
Description: Leishmania donovani Axenic Amastigote Proliferation Assay […] At the same time control compounds and DMSO are added to plates to serve as the positive and negative controls, respectively. 40 μL of parasite culture (9600 parasites) are then added to the plate wells. The plates are then placed into incubators. After 2 day incubation, 20 μL of Cell TiterGlo (Promega) is added to the plate wells. The luminescence signal of each well is measured using the Envision reader (Perkin Elmer).

`CON(C)C(=O)Nc1cccc(-c2cn3cc(NC(=O)OC(C)C)cnc3n2)c1` [Compound 14, propan-2-yl N-[2-(3-{[methoxy(methyl)carbamoyl]amino}phenyl)imidazo[1,2-a]pyrimidin-6-yl]carbamate] was tested, and the pEC50 [1] was 6.32 and the pEC50 [2] was 5.38.
